# Results taken from ChEMBL document CHEMBL4725462, “Biotransformation: Impact and Application of Metabolism in Drug Discovery” (ACS Med Chem Lett, 2020).
# Calls of active or inactive are those of the source. The rule behind the calls is not given here.
# Tests used:
# [1] = Inhibition of IgE-dependent histamine release in normal human blood basophils; type: functional, tissue-based; conditions: Basophil
# [2] = system: HMC-1.2; assay: Induction of apoptosis in human HMC-1.2 cells by flow cytometry; type: functional, cell-based
# [3] = cells; type: functional, tissue-based; conditions: Homo sapiens, Mast cell
# Description: Growth inhibition of human neoplastic mast cells incubated for 24 to 48 hrs
SMILES,IC50 [1],Activity [2],IC50 [3]
CO[C@@H]1[C@H](N(C)C(=O)c2ccccc2)C[C@H]2O[C@]1(C)n1c3ccccc3c3c4c(c5c6ccccc6n2c5c31)C(=O)NC4O (stereo partly specified),0.01 µM,inactive,–
CO[C@@H]1[C@H](N(C)C(=O)c2ccccc2)C[C@H]2O[C@]1(C)n1c3ccccc3c3c4c(c5c6ccccc6n2c5c31)C(=O)NC4,–,Active,–
CN(C(=O)c1ccccc1)[C@@H]1C[C@H]2O[C@@](C)([C@@H]1O)n1c3ccccc3c3c4c(c5c6ccccc6n2c5c31)C(=O)NC4,0.01 µM,Active,0.05 µM
